Legend:
[1] = test system: male Wistar rats; assay: Object recognition task (ORT), natural forgetting, 24-h interval; type: in vivo, rat; settings: 24 h delay, mean (SEM)
Procedure: In example 1, the compound AP-61 a 7-(4-tert butyl-cyclohexyl)-imidazotriazione (a compound of the formula II) was tested in the ORT in 3-4 month old male Wistar rats using a 24-h interval between the trials to induce natural forgetting.
(§1) One group of twenty four 3-4 month old male Wistar rats (Charles River, Sulzfeld, Germany) were used (average body weight at the beginning of the study: 365 g). All animals were housed individually in standard green line Tecniplast IVC cages on sawdust bedding. The animals were housed on a reversed 12/12-h light/dark cycle (lights on from 19:00 h to 07:00 h) and had free access to food and water. The rats were housed and tested in the same room. A radio, playing softly, provided background noise in the room. All testing was performed between 09:00 h and 18:00 h.
AP-61 was dissolved in 0.5% methylcellulose (MC) and 2% Tween 80. The solutions were prepared daily. Doses of 0.01, 0.03 and 0.1 mg/kg of AP-61 or vehicle were administered p.o. (injection volume was 2 ml/kg), immediately after T1. […]
A testing session comprised two trials, each with durations of 3 min. […] The times spent in exploring each object during T1 and T2 were recorded manually with a personal computer. […]
The measures were the times spent by rats in exploring each object during T1 and T2. […] From these exploration times the following variables were calculated: e1, e2 and d2 (Table 1). […]

[2] = test system: male Wistar rats; assay: Xylazine/ketamine-induced anesthesia test (surrogate measure of emesis); type: in vivo, rat; settings: for relative recovery time (duration of anesthesia, vehicle set at 100%), mean: 3.5 h before induction of anesthesia
Text: The mechanism of the emetic response associated with PDE4-Is is thought to be a consequence of the inhibition of PDE4 in non-target tissues. It is believed that PDE4-Is produce a pharmacological response analogous to that of presynaptic α2-adrenoreceptor inhibition by elevating intracellular levels of cAMP in noradrenergic neurons. Therefore, by removing an inhibitory mechanism, PDE4-Is are thought to modulate the release of mediators including 5-HT, substance P and noradrenaline involved in the onset of the emetic reflex mediated at emetic brainstem centers. PDE4-Is have the ability to reverse α2-adrenoreceptor agonist-mediated anesthesia with xylazine/ketamine in rodents (Robichaud et al., 2002). This effect is very likely mediated at the locus coeruleus in the brain stem. This confirms the postulate that PDE4-Is have effects similar to those of a2-adrenoreceptor antagonists. Since rodents are non-vomiting species, the ability of a PDE4-I to shorten a2-adrenergic receptor-mediated xylazine/ketamine anesthesia is therefore used as well-established surrogate measure of emesis in rodents.
as §1, with “Twenty” for “One group of twenty”
AP-61 was dissolved in 0.5% methylcellulose (MC) and 2% Tween 80. […] (injection volume was 2 ml/kg). […] The emetic properties of the PDE4-I rolipram are already assessed (Bruno et al., 2011). In the current study rolipram was used as a reference compound for AP-61 and applied in at dosages of 0.1 and 0.3 mg/kg. Rolipram was dissolved in 0.5% MC and 2% tween 80 (injection volume 2 ml/kg, route of administration was p.o.). For the induction of anesthesia, 10 mg/kg ketamine (Eurovet Animal Health, The Netherlands) and 10 mg/kg xylazine (CEVA Santé Animale, The Netherlands) were used (both administered i.p.). All solutions were prepared daily.
Rats were anesthetized with a combination of xylazine and ketamine (both 10 mg/kg, i.p). Fifteen minutes after induction of the anesthesia, rats were treated with rolipram or vehicle (0.1 or 0.3 mg/kg, p.o.) and the animals were placed in a dorsal position. The restoration of the righting reflex, i.e. when the animal no longer remained on its back and turned itself spontaneously to the prone position, was used as an endpoint to determine the duration of anesthesia. Animals that were not anesthetized after 15 min were excluded from the analysis.
AP-61 reached peak concentration at 5 h after oral administration. Because of this, induction of anesthesia with the combination of xylazine and ketamine was done 3.5 h after oral administration of AP-61. Animals were then placed in a dorsal position. The time delay to the recovery of the righting reflex was used as an endpoint to measure the duration of the anesthesia. Again, animals that were not anesthetized after 15 min were excluded from the analysis.
The restoration of the righting reflex, i.e. when the animal no longer remained on its back and turned itself spontaneously to the prone position (standing on four paws), was used as an endpoint to determine the duration to the anesthesia. Each test day a vehicle group was included. Outliers were removed from the analysis (Dixon-test). Each daily vehicle was set at 100% while the other treatment conditions of that day were expressed as a percentage of the vehicle. The following formula was used:
Duration of anesthesia after drug treatment (min)×(100/mean of duration of anesthesia of vehicle treatment (min)) […]

[3] = Plasma Tmax after oral administration; type: in vivo

SMILES	d2, discrimination index between the new and familiar objects for T2 ([1]; AP61 0.01 mg/kg p.o. immediately after T1)	d2, discrimination index between the new and familiar objects for T2 ([1]; AP61 0.1 mg/kg p.o. immediately after T1)	relative recovery time (duration of anesthesia, vehicle set at 100%), mean ([2]; AP61 0.03 mg/kg p.o.) [%]	relative recovery time (duration of anesthesia, vehicle set at 100%), mean ([2]; AP61 0.1 mg/kg p.o.) [%]	relative recovery time (duration of anesthesia, vehicle set at 100%), mean ([2]; AP61 3.0 mg/kg p.o.) [%]	effect on duration of xylazine/ketamine-induced anesthesia compared with vehicle (summary) ([2]; AP-61 0.03-3.0 mg/kg p.o., all doses)	emetic properties / gastrointestinal toxicity (conclusion) ([2]; AP-61, all doses tested, within the effective dose range)	Tmax [3] [h]	effect on duration of the xylazine/ketamine-induced anesthesia (summary) ([2]; oral rolipram, 2 mg/kg, 15 min after induction of anesthesia (so in the source))
CCc1nc(C2CCC(C(C)(C)C)CC2)n2nc(-c3ccccc3)[nH]c(=O)c12 (stereo not drawn) [AP61, 7-(4-tert-butylcyclohexyl)-5-ethyl-2-phenylimidazo[5,1-f][1,2,4]triazin-4(3H)-one]	0.10 (0.09)	0.01 (0.08)	97.16	107.16	108.37	none of the doses led to a shortened duration	does not show any signs of gastrointestinal toxicity	5	
COc1ccc(C2CNC(=O)C2)cc1OC1CCCC1 (stereo not drawn) [rolipram, reference compound]									significant reduction

Source: US20170119775A1, “TREATMENT OF COGNITIVE DISORDERS” (Algiax Pharmaceuticals GmbH, priority 2014, published 2017)
